Data: PubChem BioAssay AID2060906 (Molecular Pharmacology Branch, DTP, NCI, 2025)
Blank lines part the entries; values can stand above or below the compound they belong to.

System: 485176-168-R4-J1-PDC complex spheroid growth
Experiment: Anticancer human tumor 485176-168-R4-J1-PDC patient-derived pancreatic adenocarcinoma cell line growth inhibition [RAS]
Details: for IC50: curve of first compound; for viability, T/C: stronger effect = lower value
Summary of the method: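 Agents were tested in combination matrices in half-log decrements from a top concentration at or near clinical Cmax (10 microM if undetermined). Targets were multi-cell spheroids of tumour lines plus HUVEC and MSC stromal cells.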
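Also: spheroids exposed to compounds for seven days before readout.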
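For viability, T/C in this document: luminescence viability expressed relative to DMSO vehicle wells set as 100%.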

IC50 (second compound 0.000949 µM): > 1000 nM | IC50 (second compound 0.003 µM): > 1000 nM | IC50 (second compound 0.00949 µM): > 1000 nM | IC50 (second compound 0.03 µM): > 1000 nM | IC50 (second compound 0.0949 µM): > 1000 nM | IC50 (second compound 0.3 µM): > 1000 nM
Compound: C=CC(=O)N1CCN(c2nc(OCC3CCCN3C)nc3c(F)c(-c4nc(N)cc(C)c4C(F)(F)F)c(Cl)cc23)C(C)C1 (centres undefined) + CCn1c(-c2cc(N3CCN(C)CC3)cnc2C(C)OC)c2c3cc(ccc31)-c1csc(n1)CC(NC(=O)C1CC1C)C(=O)N1CCCC(N1)C(=O)OCC(C)(C)C2
viability, T/C (second compound 0.000949 µM, first compound 0.00316 µM): 95.4% | viability, T/C (second compound 0.000949 µM, first compound 0.01 µM): 86.6% | viability, T/C (second compound 0.000949 µM, first compound 0.0316 µM): 100% | viability, T/C (second compound 0.000949 µM, first compound 0.1 µM): 109% | viability, T/C (second compound 0.000949 µM, first compound 0.316 µM): 114% | viability, T/C (second compound 0.000949 µM, first compound 1 µM): 99% | viability, T/C (second compound 0.003 µM, first compound 0.00316 µM): 85.3% | viability, T/C (second compound 0.003 µM, first compound 0.01 µM): 89.7% | viability, T/C (second compound 0.003 µM, first compound 0.0316 µM): 87.4% | viability, T/C (second compound 0.003 µM, first compound 0.1 µM): 103% | viability, T/C (second compound 0.003 µM, first compound 0.316 µM): 101% | viability, T/C (second compound 0.003 µM, first compound 1 µM): 97.2% | viability, T/C (second compound 0.00949 µM, first compound 0.00316 µM): 89.3% | viability, T/C (second compound 0.00949 µM, first compound 0.01 µM): 88.5% | viability, T/C (second compound 0.00949 µM, first compound 0.0316 µM): 96.5% | viability, T/C (second compound 0.00949 µM, first compound 0.1 µM): 108% | viability, T/C (second compound 0.00949 µM, first compound 0.316 µM): 91.7% | viability, T/C (second compound 0.00949 µM, first compound 1 µM): 114% | viability, T/C (second compound 0.03 µM, first compound 0.00316 µM): 95.5% | viability, T/C (second compound 0.03 µM, first compound 0.01 µM): 97% | viability, T/C (second compound 0.03 µM, first compound 0.0316 µM): 77.2% | viability, T/C (second compound 0.03 µM, first compound 0.1 µM): 79.7% | viability, T/C (second compound 0.03 µM, first compound 0.316 µM): 87.6% | viability, T/C (second compound 0.03 µM, first compound 1 µM): 87.8% | viability, T/C (second compound 0.0949 µM, first compound 0.00316 µM): 84.4% | viability, T/C (second compound 0.0949 µM, first compound 0.01 µM): 105% | viability, T/C (second compound 0.0949 µM, first compound 0.0316 µM): 80.4% | viability, T/C (second compound 0.0949 µM, first compound 0.1 µM): 80.7% | viability, T/C (second compound 0.0949 µM, first compound 0.316 µM): 76.1% | viability, T/C (second compound 0.0949 µM, first compound 1 µM): 81.6% | viability, T/C (second compound 0.3 µM, first compound 0.00316 µM): 72.9% | viability, T/C (second compound 0.3 µM, first compound 0.01 µM): 72.8% | viability, T/C (second compound 0.3 µM, first compound 0.0316 µM): 82% | viability, T/C (second compound 0.3 µM, first compound 0.1 µM): 76.6% | viability, T/C (second compound 0.3 µM, first compound 0.316 µM): 91.8% | viability, T/C (second compound 0.3 µM, first compound 1 µM): 69.3%

IC50 (second compound 0.000949 µM): > 300 nM | IC50 (second compound 0.003 µM): > 300 nM | IC50 (second compound 0.00949 µM): 82.5 nM | IC50 (second compound 0.03 µM): 121 nM | IC50 (second compound 0.0949 µM): > 300 nM | IC50 (second compound 0.3 µM): 70 nM
Compound: CC1(C)CCC(Nc2ncc(C(F)(F)F)c(-c3c[nH]c4c(P(C)(C)=O)c(C#N)ccc34)n2)CN1 (centres undefined) + CCn1c(-c2cc(N3CCN(C)CC3)cnc2C(C)OC)c2c3cc(ccc31)-c1csc(n1)CC(NC(=O)C1CC1C)C(=O)N1CCCC(N1)C(=O)OCC(C)(C)C2
viability, T/C (second compound 0.000949 µM, first compound 0.000949 µM): 94.9% | viability, T/C (second compound 0.000949 µM, first compound 0.003 µM): 91.1% | viability, T/C (second compound 0.000949 µM, first compound 0.00949 µM): 93% | viability, T/C (second compound 0.000949 µM, first compound 0.03 µM): 59.2% | viability, T/C (second compound 0.000949 µM, first compound 0.0949 µM): 55.1% | viability, T/C (second compound 0.000949 µM, first compound 0.3 µM): 49.3% | viability, T/C (second compound 0.003 µM, first compound 0.000949 µM): 93.5% | viability, T/C (second compound 0.003 µM, first compound 0.003 µM): 101% | viability, T/C (second compound 0.003 µM, first compound 0.00949 µM): 75.3% | viability, T/C (second compound 0.003 µM, first compound 0.03 µM): 54.5% | viability, T/C (second compound 0.003 µM, first compound 0.0949 µM): 52% | viability, T/C (second compound 0.003 µM, first compound 0.3 µM): 54.9% | viability, T/C (second compound 0.00949 µM, first compound 0.000949 µM): 84.9% | viability, T/C (second compound 0.00949 µM, first compound 0.003 µM): 96.3% | viability, T/C (second compound 0.00949 µM, first compound 0.00949 µM): 104% | viability, T/C (second compound 0.00949 µM, first compound 0.03 µM): 55.8% | viability, T/C (second compound 0.00949 µM, first compound 0.0949 µM): 51.5% | viability, T/C (second compound 0.00949 µM, first compound 0.3 µM): 46.9% | viability, T/C (second compound 0.03 µM, first compound 0.000949 µM): 101% | viability, T/C (second compound 0.03 µM, first compound 0.003 µM): 92.8% | viability, T/C (second compound 0.03 µM, first compound 0.00949 µM): 76.5% | viability, T/C (second compound 0.03 µM, first compound 0.03 µM): 64.4% | viability, T/C (second compound 0.03 µM, first compound 0.0949 µM): 49.8% | viability, T/C (second compound 0.03 µM, first compound 0.3 µM): 45.8% | viability, T/C (second compound 0.0949 µM, first compound 0.000949 µM): 87.1% | viability, T/C (second compound 0.0949 µM, first compound 0.003 µM): 76.8% | viability, T/C (second compound 0.0949 µM, first compound 0.00949 µM): 76.2% | viability, T/C (second compound 0.0949 µM, first compound 0.03 µM): 57.4% | viability, T/C (second compound 0.0949 µM, first compound 0.0949 µM): 61.9% | viability, T/C (second compound 0.0949 µM, first compound 0.3 µM): 54.8% | viability, T/C (second compound 0.3 µM, first compound 0.000949 µM): 89.3% | viability, T/C (second compound 0.3 µM, first compound 0.003 µM): 93.4% | viability, T/C (second compound 0.3 µM, first compound 0.00949 µM): 70.5% | viability, T/C (second compound 0.3 µM, first compound 0.03 µM): 57.3% | viability, T/C (second compound 0.3 µM, first compound 0.0949 µM): 47% | viability, T/C (second compound 0.3 µM, first compound 0.3 µM): 47.2%
